Measured values: patent US8658646B2, “Pyrrolopyrazine kinase inhibitors” (Hoffmann-LaRoche Inc., priority 2011, dated 2014)

Tests used:
[1] = target: T1, recombinant human SYK360-635 (Homo sapiens, UniProt P43405); assay: Determination of IC50 of Spleen Tyrosine Kinase (SYK) inhibition, 33P ATP filtration assay; type: biochemical; conditions: SYK aa 360-635 0.5 nM; ATP 20 μM, peptide 5 μM, 0.1% BSA; read-out: SYK_ENZYME_FILTRATION/v1, BSA
T1 construct: made in house

[2] = target: T2, JAK3: Recombinant human kinase domain (Homo sapiens, UniProt P52333); assay: Determination of IC50 of Janus Kinase (JAK) inhibition, radioactive end-point 33P-ATP assay, JAK3; type: biochemical; conditions: ATP 1.5 uM, peptide 50 uM, 20 minutes, read-out: JAK3-INHIB-DR/v1~NO ADDITIVE~Enzyme_Conc = 100
T2 construct: JAK3: Recombinant human kinase domain from Millipore (Cat #14-629) or prepared; purchased Millipore 14-629
T2 sequence (P52333 822-1111 limits assumed): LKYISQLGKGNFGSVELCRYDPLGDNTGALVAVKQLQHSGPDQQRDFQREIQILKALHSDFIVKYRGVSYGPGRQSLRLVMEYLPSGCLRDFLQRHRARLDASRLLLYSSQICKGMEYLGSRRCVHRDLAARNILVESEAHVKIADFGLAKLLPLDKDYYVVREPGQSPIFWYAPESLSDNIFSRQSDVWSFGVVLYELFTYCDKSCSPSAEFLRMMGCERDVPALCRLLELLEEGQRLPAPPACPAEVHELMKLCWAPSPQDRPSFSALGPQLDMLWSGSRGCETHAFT

Row | Compound | IC50 [1] | IC50 [2]
1 | CC(C)NC(=O)c1c[nH]c2ncc(-c3nn(C)c4cc(F)cc(F)c34)nc12 [Example I-101, 2-(4,6-Difluoro-1-methyl-1H-indazol-3-yl)-5H-pyrrolo[2,3-b]pyrazine-7-carboxylic acid isopropylamide] | 13.8 nM | 10.8 nM
2 | C[C@H](NC(=O)c1c[nH]c2ncc(-c3nn(C)c4cc(Cl)ccc34)nc12)C(C)(C)C#N [Example I-80, 2-(6-Chloro-1-methyl-1H-indazol-3-yl)-5H-pyrrolo[2,3-b]pyrazine-7-carboxylic acid ((S)-2-cyano-1,2,2-trimethyl-ethyl)-amide] | 29.1 nM | 12.6 nM
3 | Cn1nc(-c2cnc3[nH]cc(C(=O)NC4CCC(N)C4)c3n2)c2ccc(Cl)cc21 (stereo not drawn) [Example I-37, 2-(6-Chloro-1-methyl-1H-indazol-3-yl)-5H-pyrrolo[2,3-b]pyrazine-7-carboxylic acid (3-amino-cyclopentyl)-amide] | 6.4 nM | 39.2 nM
4 | Cn1nc(-c2cnc3[nH]cc(C(=O)NC4CCCCC4)c3n2)c2ccc(Cl)cc21 [Example I-110, 2-(6-Chloro-1-methyl-1H-indazol-3-yl)-5H-pyrrolo[2,3-b]pyrazine-7-carboxylic acid cyclohexylamide] | 249 nM | 7.3 nM
5 | CC(C)NC(=O)c1c[nH]c2ncc(-c3nn(CCCN(C)C)c4cc(Cl)cc(F)c34)nc12 [Example I-131, 2-[6-Chloro-1-(3-dimethylamino-propyl)-4-fluoro-1H-indazol-3-yl]-5H-pyrrolo[2,3-b]pyrazine-7-carboxylic acid isopropylamide] | 39.8 nM | 7.06 nM
6 | C[C@H](CN1CC(F)C1)NC(=O)c1c[nH]c2ncc(-c3nn(C)c4cc(Cl)ccc34)nc12 [Example I-123, 2-(6-Chloro-1-methyl-1H-indazol-3-yl)-5H-pyrrolo[2,3-b]pyrazine-7-carboxylic acid [(R)-2-(3-fluoro-azetidin-1-yl)-1-methyl-ethyl]-amide] | 144 nM | 68.6 nM
7 | CC(C)NC(=O)c1c[nH]c2ncc(-c3nn(CCN4CCOCC4)c4cc(Cl)cc(F)c34)nc12 [Example I-129, 2-[6-Chloro-4-fluoro-1-(2-morpholin-4-yl-ethyl)-1H-indazol-3-yl]-5H-pyrrolo[2,3-b]pyrazine-7-carboxylic acid isopropylamide] | 49.5 nM | 4.41 nM
8 | CC(C)NC(=O)c1c[nH]c2ncc(-c3nn(C)c4cc(Cl)cc(F)c34)nc12 [Example I-127, 2-(6-Chloro-4-fluoro-1-methyl-1H-indazol-3-yl)-5H-pyrrolo[2,3-b]pyrazine-7-carboxylic acid isopropylamide] | 22.6 nM | 11 nM

The next lines start with the values.

Row | IC50 [1] | IC50 [2] | Compound
9 | 413 nM | 71.6 nM | Cn1nc(-c2cnc3[nH]cc(C(=O)N[C@@H]4CCc5ccccc54)c3n2)c2ccc(Cl)cc21 [Example I-157, 2-(6-Chloro-1-methyl-1H-indazol-3-yl)-5H-pyrrolo[2,3-b]pyrazine-7-carboxylic acid (R)-indan-1-ylamide]
10 | 69.2 nM | 66.7 nM | CC(NC(=O)c1c[nH]c2ncc(-c3nn(C)c4cc(Cl)ccc34)nc12)c1cccnc1 (stereo not drawn) [Example I-247, 2-(6-Chloro-1-methyl-1H-indazol-3-yl)-5H-pyrrolo[2,3-b]pyrazine-7-carboxylic acid (1-pyridin-3-yl-ethyl)-amide]
11 | 31.9 nM | 12.7 nM | CC(C)NC(=O)c1c[nH]c2ncc(-c3nn(C)c4c3CCC4)nc12 [Example I-282, 2-(1-Methyl-1,4,5,6-tetrahydro-cyclopentapyrazol-3-yl)-5H-pyrrolo[2,3-b]pyrazine-7-carboxylic acid isopropylamide]
12 | 377 nM | 240 nM | CC(C)NC(=O)c1c[nH]c2ncc(-c3nn(C)c4ccc(Oc5cccc(Cl)c5)cc34)nc12 [Example I-280, 2-[5-(3-Chloro-phenoxy)-1-methyl-1H-indazol-3-yl]-5H-pyrrolo[2,3-b]pyrazine-7-carboxylic acid isopropylamide]
13 | 20.5 nM | 8.04 nM | C[C@@H](CC#N)NC(=O)c1c[nH]c2ncc(-c3nn(C)c4cc(Cl)ccc34)nc12 [Example I-142, 2-(6-Chloro-1-methyl-1H-indazol-3-yl)-5H-pyrrolo[2,3-b]pyrazine-7-carboxylic acid ((S)-2-cyano-1-methyl-ethyl)-amide]
14 | 12 nM | 391 nM | Cn1nc(-c2cnc3[nH]cc(C(=O)NC4CCCC(N)C4)c3n2)c2ccc(Cl)cc21 (stereo not drawn) [Example I-169, 2-(6-Chloro-1-methyl-1H-indazol-3-yl)-5H-pyrrolo[2,3-b]pyrazine-7-carboxylic acid (3-amino-cyclohexyl)-amide]
15 | 4.58 nM | 82.5 nM | Cn1nc(-c2cnc3[nH]cc(C(=O)NC(C)(C)CO)c3n2)c2cc(OC(F)F)ccc21 [Example I-285, 2-(5-Difluoromethoxy-1-methyl-1H-indazol-3-yl)-5H-pyrrolo[2,3-b]pyrazine-7-carboxylic acid (2-hydroxy-1,1-dimethyl-ethyl)-amide]
16 | 356 nM | 80.7 nM | CC(CCCC(C)(C)O)NC(=O)c1c[nH]c2ncc(-c3nn(C)c4cc(Cl)ccc34)nc12 (stereo not drawn) [Example I-163, 2-(6-Chloro-1-methyl-1H-indazol-3-yl)-5H-pyrrolo[2,3-b]pyrazine-7-carboxylic acid (5-hydroxy-1,5-dimethyl-hexyl)-amide]
17 | 209 nM | 2.1 nM | COC[C@H](C)NC(=O)c1c[nH]c2ncc(-c3nn(CCN4CCCC4)c4cc(F)ccc34)nc12 [Example I-242, 2-[6-Fluoro-1-(2-pyrrolidin-1-yl-ethyl)-1H-indazol-3-yl]-5H-pyrrolo[2,3-b]pyrazine-7-carboxylic acid ((S)-2-methoxy-1-methyl-ethyl)-amide]
18 | 354 nM | 41.5 nM | CC(NC(=O)c1c[nH]c2ncc(-c3nn(CCN(C)C)c4cc(Cl)ccc34)nc12)c1cccnc1 (stereo not drawn) [Example I-246, 2-[6-Chloro-1-(2-dimethylamino-ethyl)-1H-indazol-3-yl]-5H-pyrrolo[2,3-b]pyrazine-7-carboxylic acid (1-pyridin-3-yl-ethyl)-amide]
